Measured values as given in patent publication US9795574B2, “Method for preparing agomelatine cocrystals and composition containing same” (SOONCHUNHYANG UNIVERSITY INDUSTRY ACADEMY COOPERATION …, priority 2014, dated 2017).

Columns and labels:
[1] = Intrinsic dissolution rate (IDR) of pellets, USP equipment 2 (paddle method); type: physicochemical; conditions: for Dissolution rate (intrinsic dissolution rate in terms of ratio): 37° C., 50 rpm, ratio to agomelatine
Protocol: In order to measure the intrinsic dissolution rate (IDR) of agomelatine and the agomelatine-resorcinol co-crystal, 50 mg of agomelatine and 72.63 mg of the agomelatine-resorcinol co-crystal of Example 1 were molded into a number of pellets having a constant surface area and then subjected to a dissolution testing.
Each powder specimen was put in a 13 mm pellet die (Specac, UK), squeezed down under a weight of 0.5 ton for 2 minutes with a hydraulic compressor and then molded into pellets having a constant surface area of 1.33 cm^2.
The pellets thus obtained were immobilized in 900 ml of a testing solution (pH 1.2 HCl aqueous solution and pH 6.8 phosphate-buffer solution) at 37° C., which solution was stirred with USP equipment 2 (paddle method) operated at 50 rpm. Then, the concentration of the agomelatine released from the pellets was measured.
3 ml of the testing solution was collected each time of 3 min, 5 min, 10 min, 15 min, 20 min, 25 min, 30 min, 45 min, 60 min, 75 min, 90 min, 105 min, and 120 min. The concentration (dissolved amount) of agomelatine in the collected solution was measured with UV-3600 (Shimadzu, Japan) spectrochemical analysis equipment.
FIG. 11 presents the results of the dissolution testing for the agomelatine and the agomelatine-resorcinol co-crystal in an aqueous solution of HCl (pH 1.2) and a phosphate-buffered solution (pH 6.8).

[2] = Thermal stability testing: powder kept at 70° C., then X-ray diffraction analysis; type: physicochemical
Description: In other words, the antisolvent method of the present invention makes it possible to produce an agomelatine-resorcinol co-crystal with higher stability.

[3] = Medium pH = 1.2 HCl aqueous solution
[4] = Medium pH = 6.8 phosphate-buffer solution

Compound | Dissolution rate (intrinsic dissolution rate in terms of ratio) [1, 3] | Dissolution rate (intrinsic dissolution rate in terms of ratio) [1, 4] | dissolution rate higher than agomelatine ([1]; acidic medium (pH 1.2)) | dissolution rate higher than agomelatine ([1]; neutral medium (pH 6.8)) | crystal form after storage (XRD) ([2]; kept at 70° C. for 30 days) | crystal form after storage (XRD) ([2]; same temperature conditions (70° C.), 7 days)
agomelatine-resorcinol co-crystal [Example 1] | 2.3 | 3.2 | 2.3 fold | 3.2 fold | pure crystal form was maintained | 
agomelatine-resorcinol co-crystal [Preparation Example 1, reference compound] |  |  |  |  |  | deformation occurred
COc1ccc2cccc(CCNC(C)=O)c2c1 [Agomelatine, agomelatine] | 1.0 | 1.0 |  |  |  | 
